Among the data in patent US7312358B2, “Pharmaceutically active sulfanilide derivatives” (Laboratoires Serono SA, priority 2000, dated 2007) are IC50, melting point and Ki values, retold here.

One data set deals with T1, ratOT-R (Rattus norvegicus, UniProt P70536).
T1 construct: expressed in transfected cells; host or cells: HEK/EBNA cells
T1 sequence (P70536 1-388): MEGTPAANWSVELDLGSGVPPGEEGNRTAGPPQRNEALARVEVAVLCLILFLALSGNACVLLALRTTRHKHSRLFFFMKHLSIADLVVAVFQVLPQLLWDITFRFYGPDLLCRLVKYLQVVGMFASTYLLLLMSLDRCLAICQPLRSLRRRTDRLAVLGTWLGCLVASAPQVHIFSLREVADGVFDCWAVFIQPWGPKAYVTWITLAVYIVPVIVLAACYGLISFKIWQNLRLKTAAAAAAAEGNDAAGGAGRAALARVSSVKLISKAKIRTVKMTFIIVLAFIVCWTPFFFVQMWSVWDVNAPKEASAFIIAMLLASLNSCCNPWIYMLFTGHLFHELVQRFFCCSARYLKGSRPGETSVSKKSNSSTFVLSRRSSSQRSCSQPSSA
Briefly: Inhibition of IP3 (inositol tri-phosphate)-synthesis in HEK/EBNA-OTR cells. Type of data set: cell-based. The following applies: [3H]-inositol, oxytocin 10 nM. The protocol: e) Functional Assay No. 2: Inhibition of IP3 (Inositol Tri-Phosphate)-Synthesis in HEK/EBNA-OTR Cells
This assay intends to show the inhibition of the OT/OT-R mediated IP3 synthesis—being necessary to cause uterine contractions—by using test compounds of formula (I).
Stimulation of the cells: IIEK/EBNA OTR(rat or human) cells were plated out into costar 12-well plates, and equilibrated for 15-24 h with [^3H]-inositol radiolabel in medium without inositol supplement, with 1% FCS (0.5 ml/well). 4 μCi/ml were used. After this, the medium containing the label was aspirated. Then was added DMEM (without FCS, inositol), 20 mM Hepes (4-(2-hydroxyethyl)-1-piperazine-ethane-sulphonic acid), 1 mg/ml BSA containing 10 mM LiCl (freshly prepared), for […] at 37° C. The agonist (i.e. oxytocin used at a concentration of 10 nM) and the antagonists (i.e. the tests compounds of formula (1) used in a concentration of 10 μM, 1 μM, 300 nM, 100 nM, 10 nM, 1 nM, 100 pM, 10 pM, 3 pM) were added for the time required (15-45 min), followed by aspiration of the medium. Due to the […] of the OT receptor, the radiolabeled inositol is phosphorylated to yield IP3, the amount of the radiolabeled IP3 may be determined through the ensuing work-up. The reaction was stopped with 1 ml STOP-solution (i.e. 0.4 M perchloric acid), and let sit for 5-10 min at Room Temperature. Then, 0.8 ml were transferred into tubes containing 0.4 ml of neutralizing solution (0.72 M KOH/0.6M KHCO3), and the tubes vortexed and kept in the cold at least for 2 h.
Separation of IP's: The samples were spun in a table top centrifuge at 3000-4000 rpm for 15 min. 1 ml of the supernatant was transferred to new tubes containing 2.5 ml H2O. Packed resin (0.8 ml) was equilibrated with 20 ml H2O, and the whole samples poured onto the chromatography columns, thus separating the mixture. To discard free inositol, two washes with 10 ml H2O were carried out.
Elution of total IP's: The elution was achieved using 3 ml 1M ammonium formate/0.1M formic acid. The eluant was collected in scintillation counting tubes, followed by addition of 7 ml of scintillation liquid. The amount of IP3 is determined by a scintillating counter.
The activities of the sulfanilide derivatives claimed in the formula I were assessed using the above described in vitro biological assay. The values refer to the capacity of the example compounds according to formula I to effectively antagonize oxytocin-induced IP3-synthesis mediated by the oxytocin receptor.

For the next data set, the target named is T2, hOT-R (Homo sapiens, UniProt P30559).
T2 construct: expressed in transfected cells; host or cells: HEK (Human Embryonic Kidney) cells
T2 sequence (P30559 1-389): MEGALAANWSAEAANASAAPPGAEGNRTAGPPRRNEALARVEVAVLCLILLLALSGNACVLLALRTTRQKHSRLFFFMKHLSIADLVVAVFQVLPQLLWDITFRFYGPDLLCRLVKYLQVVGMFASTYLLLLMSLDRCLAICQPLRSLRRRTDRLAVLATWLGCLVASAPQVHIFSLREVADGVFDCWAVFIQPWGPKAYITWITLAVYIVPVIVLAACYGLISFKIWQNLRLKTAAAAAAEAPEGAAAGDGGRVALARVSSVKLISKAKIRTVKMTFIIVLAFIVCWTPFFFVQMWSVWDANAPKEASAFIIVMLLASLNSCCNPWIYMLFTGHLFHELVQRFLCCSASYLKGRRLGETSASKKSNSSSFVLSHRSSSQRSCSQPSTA
The data set is described as follows: Inhibition of oxytocin mediated Ca2+-mobilization by FLIPR (HEK cells). Type of data set: cell-based. The following applies: fluo-4, OT 40 nM. The source says:
c) Functional Assay No. 1: Inhibition of Oxytocitn Mediated Ca^2+-Mobilization by FLIPR (Fluorescent Imaging Plate Reader)
(§1) FLIPR is a machine for fluorescence imaging using a laser that is capable of illuminating a 96-well plate and a means of simultaneously reading each well thus enabling rapid measurements on a large number of samples.
This assay intends to show the inhibition of the OT/OT-R mediated calcium mobilisation—being necessary to cause uterine contractions—by using test compounds of formula (I).
Preparing the plates: FLIPR-plates were pre-coated with PLL (Poly-L-Lysine) 10 μg/ml+0.1% gelatine to attach the HEK (Human Embryonic Kidney) cells for 30 min up to 2 days at 37° C. The cells were plated out into 96-well plates (60000 cells/well).
Labelling with fluo-4: […] fluo-4 (fluorescent marker) were dissolved in 20 μl pluronic acid (20% in DMSO). The dissolved fluo-4 was then diluted in 10 ml DMEM (Dubecco's Minimal Essential Medium-F12 medium without FCS (Fetal Calf Serum). The medium was removed from the plates, followed by one wash with DNEM-F12 medium. Now, 100 μl of the DMEM-F12 medium containing fluo-4 were added and the cells incubated for 1.5-2 h (HEK-cells). The cells now contain the fluorescent marker.
(§2) Buffer: 145 mM NaCl, 5 mM KCl, 1 mM MgCl2, 10 mM Hepes, 10 mM Glucose, EGTA (Ethylene-bis oxyethylene nitrilo tetraacetic acid). Adjust to pH 7.4.
(§3) Performance of the assay: A minimum of 80 μl/well of antagonists (5×) in the above buffer (1×) were prepared (96-well plates). The antagonists were added to the well-plates at different concentrations (30 μM, 10 μM, 1 μM, 300 nM, 100 nM, 10 nM, 1 nM, 100 pM, 10 pM).
OT is added at a concentration of 40 nM.
(§4) The fluorescent marker being sensitive to the amount of Ca^2+ mobilized within the cell may be quantified by the FLIPR machine.
The activities of the sulfanilide derivatives according to formula I were assessed using the above described in vitro biological assay. The values refer to the capacity of the example compounds according to formula I to effectively antagonize oxytocin-induced intracellular Ca^2+-mobilization mediated by the oxytocin receptor.

Data set [1] deals with T3, hV1a (Homo sapiens, UniProt P37288). Briefly: Inhibition of vasopressin-mediated Ca2+-mobilization by FLIPR (CHO cells expressing hV1a). It is filed as cell-based. On the set-up: expressed in transfected cells; host or cells: CHO cells. The following applies: fluo-4, AVP 40 nM.
Source text: d) Functional Assay No. 1: Inhibition of Vasopressin-Mediated Ca^2+-mobilization by FLIPR (Fluorescent Imaging Plate Reader)
as §1
This assay intends to show the inhibition of the AVP/V1a-R mediated calcium mobilisation—being necessary to cause uterine contractions—by using test compounds of formula (1).
Preparing the plates: FLIPR-plates were pre-coated with PLL (Poly-L-Lysine) 10 μg/ml+0.1% gelatine to attach the CHO cells (expessing hV1a) for 30 min up to 2 days at 37° C. The cells were plated out into 96-well plates (60000 cells/well).
Labelling with fluo-4: 50 μg fluo-4 (fluorescent marker) were dissolved in 20 μl pluronic acid (20% in DMSO). The dissolved fluo-4 was then diluted in 10 ml DMEM (Dubecco's […] Medium-F12 medium without FCS (Fetal Calf Serum). The medium was removed from the plates, followed by one wash with DMEM-F12 medium. Now, 100 μl of the DMEM-F12 medium containing fluo-4 were added and the cells incubated for 1-1.5 h (CHO-cells). The cells now contain the fluorescent marker.
as §2, §3
AVP is added at a concentration of 40 nM.
as §4
The activities of the sulfanilide derivatives according to formula I were assessed using the above described in vitro biological assay. The values refer to the capacity of the example compounds according to formula I to effectively antagonize AVP-induced intracellular Ca^2+-mobilization mediated by the VIa-receptor.

The target in data set [2] is T3, hV1a. Briefly: In vitro competition binding assay on hV1a receptor with scintillating proximity assay. On the set-up: expressed in transfected cells; host or cells: CHO cells (membranes). The following applies: membranes from CHO cells expressing hV1a receptor; radiolabel [125I]-LVA; SPA; read-out: Binding Affinity Human V1a Ki. The protocol:
b) In Vitro Competition Binding Assay on hV1a Receptor with Scintillating Proximity Assay
This assays allows to determine the affinity of the test compounds for the V1a receptor. Membranes from CHO cells expressing the hV1a receptor were resuspended in buffer containing 50 mM Tris-HCl, pH 7.4, 5 mM MgCl2 and 0.1% BSA (w/v). The membranes (5-10 μg) were mixed with 0.2 mg wheat-germ aglutinin (WGA) SPA bead (type A) and 0.03 nM of the radiolabel [^125I]-LVA (LVA being Linear Vasopressin Antagonist and is an analogue of AVP for competition binding experiments). Non-specific binding was determined in the presence of 1 μM AVP. The total assay volume was 100 μl. The plates (Corning 0 NBS plate) were incubated at room temperature for 2 hours and counted on a Mibrobeta plate counter. The tests compounds were used in concentrations of 30 μM, 10 μM, 1 μM, 300 nM, 100 nM, 10 nM, 1 nM, 100 pM, 10 pM. The competition binding data were analysed using the iterative, nonlinear, curve-fitting program, Graph pad “Prism”.
The binding affinities to the Via receptor of the sulfanilide derivatives claimed in the formula I were assessed using the above described in vitro biological assay. The values refer to the binding affinity (IC50; HM) of the example compounds according to formula I to the V1a receptor. From the values shown in Table 1 it can be derived that said test compounds according to formula I do show a significant binding to the Via receptor.

A further data set has as its target T4, hOT receptor (Homo sapiens, UniProt P30559).
T4 construct: expressed in transfected cells; host or cells: HEK293EBNA cells (membranes)
T4 sequence (P30559 1-389): T2 sequence (P30559 1-389)
The data set is described as follows: In vitro competition binding assay on hOT receptor with scintillating proximity assay. The following applies: membranes from HEK293EBNA cells expressing hOT receptor; radiolabel [125I]-OVTA; SPA; read-out: Binding Affinity Human OT-R Ki. The method, boiled down:
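SPA competition binding using HEK293EBNA membranes expressing hOT receptor (2-4 μg) with WGA beads and 0.2 nM [125I]-OVTA in 50 mM Tris-HCl pH 7.4, 5 mM MgCl2, 0.1% BSA, 30 min at room temperature. Non-specific binding with 1 μM oxytocin; compounds at 10 pM–30 μM; IC50 by nonlinear curve fitting.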

Each structure is given as a SMILES string.

T3 sequence (P37288 whole entry): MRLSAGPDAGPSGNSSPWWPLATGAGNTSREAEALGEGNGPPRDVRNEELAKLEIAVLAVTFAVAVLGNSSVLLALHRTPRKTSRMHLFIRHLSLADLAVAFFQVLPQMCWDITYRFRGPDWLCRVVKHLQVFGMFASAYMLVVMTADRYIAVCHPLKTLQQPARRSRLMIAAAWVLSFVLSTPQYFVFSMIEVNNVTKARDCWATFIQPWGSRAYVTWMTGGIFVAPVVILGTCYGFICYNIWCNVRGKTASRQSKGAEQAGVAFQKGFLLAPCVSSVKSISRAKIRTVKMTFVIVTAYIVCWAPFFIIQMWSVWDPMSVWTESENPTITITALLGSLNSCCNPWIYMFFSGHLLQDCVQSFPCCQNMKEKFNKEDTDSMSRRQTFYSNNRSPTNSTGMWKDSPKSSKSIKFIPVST

On to `Cc1c(Cl)cccc1NC(=O)CN(c1ccc(Br)cc1)S(=O)(=O)c1ccccc1` [2-[Benzenesulfonyl-(4-bromo-phenyl)-amino]-N-(3-chloro-2-methyl-phenyl)-acetamide], for which the figures for the IC50 on ratOT-R and at hOT-R were 110 nM and 353 nM, respectively.

For `Cc1c(Cl)cccc1NC(=O)CN(c1ccc(Cl)cc1)S(=O)(=O)c1ccccc1` [2-[Benzenesulfonyl-(4-chloro-phenyl)-amino]-N-(3-chloro-2-methyl-phenyl)-acetamide], the concentration for half-maximal inhibition (IC50) (usually the concentration that inhibits the measured activity by half) is 320 nM on ratOT-R and 443 nM against hOT-R.

Compound `COc1ccc(N(CC(=O)Nc2ccc(Cl)cc2C)S(=O)(=O)c2ccccc2)cc1` [2-[Benzenesulfonyl-(4-methoxy-phenyl)-amino]-N-(4-chloro-2-methyl-phenyl)-acetamide] showed an IC50 against hV1a [1] of 90 nM.

Consider `COc1ccc(S(=O)(=O)N(CC(=O)N/N=C/c2ccccc2O)c2ccc(Cl)cc2)cc1OC` [Example 37, N-(4-chlorophenyl)-N-{2-[(2E)-2-(2-hydroxybenzylidene)hydrazino]-2-oxoethyl}-3,4-dimethoxybenzenesulfonamide], for which the melting point (usually the temperature, or range, at which the solid turns liquid) lay within 188 to 189 °C. The Ki (as a rule, a measure of affinity in units of concentration, obtained from inhibition or displacement) on hV1a [2] was determined as 550 nM.

Consider `CCOc1ccc(S(=O)(=O)N(CC(=O)N2CCc3ccccc3C2)c2ccc(C)cc2)cc1` [N-[2-(3,4-Dihydro-1H-isoquinolin-2-yl)-2-oxo-ethyl]-4-ethoxy-N-p-tolyl-benzenesulfonamide], for which the Ki at hOT receptor came out at 246 nM; on hV1a [2], 375 nM.

As for `O=C(CN(c1ccccc1)S(=O)(=O)c1ccccc1)N/N=C1\C(=O)Nc2ccccc21` [N-{2-oxo-2-[2-(2-oxo-1,2-dihydro-3H-indol-3-ylidene)hydrazino]ethyl}-N-phenylbenzenesulfonamide], at ratOT-R, the IC50 was 300 nM.

Regarding `C/C(=N\NC(=O)CN(c1ccc(Br)cc1)S(=O)(=O)c1ccccc1)c1ccccc1O` [drawing 134, N-(4-Bromo-phenyl)-N-[1-(2-hydroxy-phenyl)-ethylidenehydrazinocarbonylmethyl]-benzenesulfonamide], the Ki on hV1a [2] worked out at 391 nM.

On to `C/C(=N\NC(=O)CN(c1ccc(Br)cc1)S(=O)(=O)c1ccccc1)c1ccccc1O` [drawing 139, N-(4-Bromo-phenyl)-N-[1-(2-hydroxy-phenyl)-ethylidene-hydrazinocarbonylmethyl]-benzenesulfonamide], for which the Ki at hV1a [2] amounted to 800 nM.

Regarding `C/C(=N\NC(=O)CN(c1ccc(Br)cc1)S(=O)(=O)c1ccccc1)c1ccccc1O` [drawing 168, N-(4-bromophenyl)-N-(2-{2-[1-(2-hydroxyphenyl)ethylidene]hydrazino}-2-oxoethyl)benzenesulfonamide], the midpoint of inhibition at ratOT-R, the IC50, lay at 48 nM.
